Read-outs that look alike come from different tables or passages of the source.
Experiments:
[1] = target: T1, CCK receptor (brain, cerebral cortex) (Cavia porcellus, UniProt H0VZC5); test: biochemical; format: binding, Male Hartley guinea pigs; settings: guinea pig cerebral cortex, ^125 I-CCK-33, 25° C., 2 hours
T1 construct: Cerebral cortex was dissected and used as a receptor source; from tissue; host or cells: guinea pig cerebral cortex membranes (male Hartley)
T1 sequence (H0VZC5 1-426): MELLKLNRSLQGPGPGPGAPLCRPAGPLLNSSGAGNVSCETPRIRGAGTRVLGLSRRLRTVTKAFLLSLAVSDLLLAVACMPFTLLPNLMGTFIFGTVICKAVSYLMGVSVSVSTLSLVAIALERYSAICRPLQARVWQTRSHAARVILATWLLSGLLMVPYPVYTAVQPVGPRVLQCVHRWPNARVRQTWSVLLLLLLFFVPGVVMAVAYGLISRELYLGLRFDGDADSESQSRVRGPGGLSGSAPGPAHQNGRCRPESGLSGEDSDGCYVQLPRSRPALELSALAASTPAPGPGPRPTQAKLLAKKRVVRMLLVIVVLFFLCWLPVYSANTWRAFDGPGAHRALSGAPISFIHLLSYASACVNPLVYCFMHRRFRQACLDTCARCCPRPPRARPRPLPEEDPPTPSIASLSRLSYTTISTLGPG
How it was run: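 Binding of [radiolabeled] CCK-33 measured by gamma counting of centrifuged pellets after 2 h at 25°C. Membranes came from guinea pig brain cortex, suspended in 10 mM HEPES, 5 mM MgCl2, 1 mM EGTA, 0.25 mg/ml bacitracin, 0.4% BSA.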

[2] = target: T2, Gastrin receptor (gastric glands) (Cavia porcellus, UniProt H0VZC5); test: Gastrin Receptor Binding in Guinea Pig Gastric Glands; design: species or system guinea pig (male Hartley); settings: 25° C., 30 minutes
T2 construct: The washed guinea pig gastric glands prepared as above were resuspended; from tissue; host or cells: guinea pig gastric mucosal glands (male Hartley)
T2 sequence (H0VZC5 1-426): T1 sequence (H0VZC5 1-426)

CCK receptor (pancreas) = target: T3, CCK receptor (pancreas) (Rattus norvegicus, UniProt P30551); test: CCK Receptor Binding (Pancreas): inhibition of ^125 I-CCK-33 binding; design: species or system Male Sprague-Dawley rats; settings: rat pancreas membranes, ^125 I-CCK-33, 37° C., 30 minutes
T3 construct: The whole pancreas was dissected free of fat tissue and was homogenized; from tissue; host or cells: rat pancreas membranes (Sprague-Dawley)
T3 sequence (P30551 1-444): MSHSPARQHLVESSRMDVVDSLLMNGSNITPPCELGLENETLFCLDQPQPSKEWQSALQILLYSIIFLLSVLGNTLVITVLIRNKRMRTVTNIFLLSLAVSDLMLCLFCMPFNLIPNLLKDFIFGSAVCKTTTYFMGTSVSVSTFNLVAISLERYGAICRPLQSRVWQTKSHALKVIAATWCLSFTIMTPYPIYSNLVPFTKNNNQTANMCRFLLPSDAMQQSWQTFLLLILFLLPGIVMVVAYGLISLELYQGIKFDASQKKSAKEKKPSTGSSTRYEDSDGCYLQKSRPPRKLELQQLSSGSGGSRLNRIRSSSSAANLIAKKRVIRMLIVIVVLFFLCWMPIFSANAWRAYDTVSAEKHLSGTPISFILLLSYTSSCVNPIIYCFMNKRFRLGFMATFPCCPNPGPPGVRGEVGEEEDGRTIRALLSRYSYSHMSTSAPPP
Method: 1. CCK Receptor Binding (Pancreas)
CCK-33 was radiolabeled with ^125 I-Bolton Hunter reagent (2000 Ci/mmole) as described by Sankara et al. (J. Biol. Chem. 254: 9349-9351, 1979). Receptor binding was performed according to Innis and Snyder (Proc. Natl. Acad. Sci. 77: 6917-6921, 1980) with the minor modification of adding the additional protease inhibitors, phenylmethane sulfonyl fluoride and o-phenanthroline.
Male Sprague-Dawley rats (200-350 g) were sacrificed by decapitation. The whole pancreas was dissected free of fat tissue and was homogenized in 20 volumes of ice-cold 50 mM, Tris HCl (pH 7.7 at 25° C.) with a Brinkmann Polytron PT 10. The homogenates were centrifuged at 48,000 g for 10 min. Pellets were resuspended in Tris Buffer, centrifuged as above and resuspended in 200 volumes of binding assay buffer (50 mM Tris HCl, pH 7.7 at 25° C., 5 mM dithiothrietol, 0.1 mM bacitracin, 1.2 mM phenylmethane sulfonyl fluoride and 0.5 mM o-phenanthroline). […] All assays were run in duplicate or triplicate. The reaction mixtures were incubated at 37° C. for 30 minutes and centrifuged in a Beckman Microfuge (4 minutes) immediately after adding 1 ml of ice-cold incubation buffer. The supernatant was aspirated and discarded, pellets were counted with a Beckman gamma 5000. For Scatchard analysis (Ann. N.Y. Acad. Sci. 51: 660, 1949), ^125 I-CCK-33 was progressively diluted with increasing concentrations of CCK-33.

[3] = read-out: IC50 ^125 I-CCK Brain
[4] = ^125 I-gastrin, read-out: IC50 ^125 I-Gastrin Gastric Glands
[5] = read-out: IC50 ^125 I-CCK Pancreas
[6] = IC50 ^125 I-Gastrin Gastric Glands

Row | Structure (SMILES) | IC50 [1, 3] | IC50 [2, 4] | IC50 (CCK receptor (pancreas); IC50 ^125 I-CCK Pancreas) | IC50 (CCK receptor (pancreas); [5]) | IC50 ([1]; IC50 ^125 I-CCK Brain) | IC50 [2, 6]
1 | CN1C(=O)C(C(O)c2ccsc2)N=C(c2ccccc2)c2ccccc21 (racemic) [Example 49, 1,3-Dihydro-3-(RS)-[1-hydroxy-1-(3-thienyl)]methyl-1-methyl-5-phenyl-2H-1,4-benzodiazepin-2-one] | 100 µM | 34 µM | > 100 µM |  |  | 
2 | CN1C(=O)C(C(O)c2cn(C)c3ccccc23)N=C(c2ccccc2)c2ccccc21 (racemic) [Example 50a, 1,3-Dihydro-3(RS)-[1-hydroxy-1-[3-(1-methylindolyl)]]-methyl-1-methyl-5-phenyl-2H-1,4-benzodiazepin-2-one] | 2.6 µM | 1.2 µM | 15 µM |  |  | 
3 | CN1C(=O)C(C(O)c2cn(C)c3ccccc23)N=C(c2ccccc2)c2ccccc21 (racemic) [Example 50b, 1,3-Dihydro-3(RS)-[1-hydroxy-1-[3-(1-methylindolyl)]]-methyl-1-methyl-5-phenyl-2H-1,4-benzodiazepin-2-one] | 40 µM | 61 µM | 100 µM |  |  | 
4 | CN1C(=O)C(C(O)c2ccccc2)N=C(c2ccccc2)c2ccccc21 (racemic) [Example 51, 1,3-Dihydro-3(RS)-(1-hydroxy-1-phenyl)methyl-1-methyl-5-phenyl-2H-1,4-benzodiazepin-2-one] | 32 µM | 25 µM | > 100 µM |  |  | 
5 | CN1C(=O)C(C(O)c2cccs2)N=C(c2ccccc2)c2ccccc21 (racemic) [Example 52, 1,3-Dihydro-3(RS)-[1-hydroxy-1-(2-thienyl)]methyl-1-methyl-5-phenyl-2H-1,4-benzodiazepin-2-one] | 33 µM | 26 µM | > 100 µM |  |  | 
6 | CN1C(=O)C(O)(C(=O)c2ccsc2)N=C(c2ccccc2)c2ccccc21 (racemic) [Example 53a, 1,3-Dihydro-3-(RS)-hydroxy-1-methyl-5-phenyl-3-(3'-thienoyl)-2H-1,4-benzodiazepin-2-one] | 4.2 µM | 0.85 µM | 100 µM |  |  | 
7 | CN1C(=O)C(C(=O)c2ccsc2)=NC(O)(c2ccccc2)c2ccccc21 (racemic) [Example 53b, 1,5-Dihydro-5-(RS)-hydroxy-1-methyl-5-phenyl-3-(3'-thienoyl)-2H-1,4-benzodiazepin-2-one] | 100 µM | > 100 µM |  | 19 µM |  | 
8 | O=C1Nc2ccccc2C(c2ccccc2)=NC1Cc1c[nH]c2ccc(Br)cc12 (racemic) [Example 57, 3(RS)-[3'-(5'-Bromoindolyl)methyl]-1,3-dihydro-5-phenyl-2H-1,4-benzodiazepin-2-one] |  |  | 2.9 µM |  | 100 µM | 700 µM
9 | O=C(c1ccccc1F)c1ccccc1NC(=O)C(CN1C(=O)c2ccccc2C1=O)N1C(=O)c2ccccc2C1=O (racemic) [Example 62, 2-N-[2(RS)-3-diphthalylaminopropanoyl]amino-2'-fluorobenzophenone] | > 100 µM | > 1000 µM |  | > 100 µM |  | 
10 | NCC1N=C(c2ccccc2F)c2ccccc2NC1=O (racemic) [Example 63, 1,3-Dihydro-5-(2'-fluorophenyl)-3(RS)-aminomethyl-2H-1,4-benzodiazepin-2-on] |  |  | > 100 µM |  | > 100 µM | > 1000 µM
11 | O=C1Nc2ccccc2C(c2ccccc2F)=NC1CNc1cncc(Cl)n1 (racemic) [Example 70, 1,3-Dihydro-5-(2'-fluorophenyl)-3-(RS)-(6'-chloropyrazin-2yl)aminomethyl-2H-4-benzodiazepin-2-one] | 100 µM | 200 µM | 15 µM |  |  | 
12 | O=C(OC1N=C(c2ccccc2)c2ccccc2NC1=O)c1cc2ccccc2[nH]1 (racemic) [Example 107, 1,3-Dihydro-3-(RS)-(2-indolecarbonyloxy)-5-phenyl-2H-1,4-benzodiazepin-2-one] |  |  | 0.049 µM |  | 50 µM | > 10 µM
13 | O=C(NC1N=C(c2ccccc2F)c2ccccc2NC1=O)c1ccc(Cl)cc1 (racemic) [Example 111, 1,3-Dihydro-3-(RS)-(4-chlorophenylcarbonyl)amino-5-(2-fluorophenyl)-2H-1,4-benzodiazepin-2-one] |  |  | 0.007 µM |  | 40 µM | 8.4 µM
14 | Cc1ccc(S(=O)(=O)NC2N=C(c3ccccc3F)c3ccccc3NC2=O)cc1 (racemic) [Example 112, 1,3-Dihydro-3-(RS)-(4-methylphenylsulfonyl)amino-5-(2-fluorophenyl)-2H-1,4-benzodiazepin-2-one] | > 50 µM | > 10 µM | 24 µM |  |  | 
15 | CC1=C(C(=O)NC2N=C(c3ccccc3F)c3ccccc3NC2=O)Cc2ccccc21 (racemic) [Example 115, 1,3-Dihydro-3-(RS)-(3'-methylindenyl-2-carbonyl)amino-5-(2-fluorophenyl)-2H-1,4-benzodiazepin-2-one] | 3.5 µM | > 10 µM | 0.022 µM |  |  | 
16 | O=C(NC1N=C(c2ccccc2F)c2ccccc2NC1=O)c1ccc2ccccc2n1 (racemic) [Example 116] | 80 µM | > 10 µM | 0.3 µM |  |  | 
17 | O=C1Nc2ccccc2C(c2ccccc2F)=NC1NCc1cc2ccccc2[nH]1 (racemic) [Example 124, 1,3-Dihydro-5-(2-fluorophenyl)-3-(RS)-(2-indolylmethyl-amino)-2H-1,4-benzodiazepin-2-one] |  |  | 0.25 µM |  | 100 µM | > 10 µM
18 | O=C(CNc1ccccc1)NC1N=C(c2ccccc2F)c2ccccc2NC1=O (racemic) [Example 125, 1,3-Dihydro-3-(RS)-(phenylaminomethylcarbonyl)amino-5-(2-fluorophenyl)-2H-1,4-benzodiazepin-2-one] |  |  | 0.9 µM |  | 100 µM | > 10 µM
19 | N#Cc1ccc(C(=O)NC2N=C(c3ccccc3)c3ccccc3NC2=O)cc1 (racemic) [Example 149, 3-(RS)-(4'-Cyanobenzoylamino)1,3-dihydro-5-phenyl-2H-1,4-benzodiazepin-2-one] |  |  | 0.73 µM |  | > 100 µM | 22 µM
20 | O=C(NC1N=C(c2ccccc2F)c2ccccc2NC1=O)OCc1ccccc1 (racemic) [Example 175, 1,3-Dihydro-5-(2-fluorophenyl)-3(RS)-benzyloxycarbonylamino-2H-1,4-benzodiazepin-2-one] | 15 µM | 8 µM | 0.7 µM |  |  | 
21 | O=C(NC1N=C(c2ccccc2F)c2ccccc2NC1=S)OCc1ccccc1 (racemic) [Example 176, 1,3-Dihydro-5-(2-fluorophenyl)-3-(RS)-benzyloxycarbonylamino-2H-1,4-benzodiazeoin-2-thione] |  |  | 1 µM |  | 10 µM | 3.2 µM
